For 27 molecules, IC50 and EC50 results are on record in patent US7265152B2 (ViroPharma Incorporated, priority 2002, dated 2007).

In test [1] the target is T1, HCV NS5B (Hepatitis C virus genotype 1b, UniProt Q9WMX2).
T1 construct: fusion protein, of which the carboxyl terminal 21 amino acids were removed to enhance its solubility; His tag (GSHHHHHH); made in house; host or cells: E. coli
Nature of the test: Inhibition of viral RNA-dependent RNA polymerase (RdRp), in vitro biochemical assay. More on the design: species or system HCV genotype 1b virus (BB7). As to conditions: HCV NS5B RdRp, BB7; class symbols A-D; read-out: HCV pol-BB7 IC50. The essentials:
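Purified recombinant NS5B from a genotype 1b consensus (BB7), His-tagged, E. coli-expressed, with the C-terminal 21 residues deleted. Inhibition of RdRp activity in vitro was measured, and IC50 is the concentration giving 50% inhibition.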

Test [2] concerns HCV replicon (BB7 sequence) in Huh-7-Clone A cells. Description: HCV replicon assay: ELISA of NS5A protein in replicon-containing cells (Inhibition of Viral RNA Replication). Particulars: Hepatitis C virus; HCV replicon assay; ranges of EC50; read-out: Replicon. The test is classed as cell-based. The essentials: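 Huh-7-Clone A cells carrying subgenomic BB7 HCV replicon (G418-selectable) incubated 72 h with compound. NS5A protein quantified by cell ELISA: glutaraldehyde fixation, anti-NS5A monoclonal plus HRP secondary, TMB read at OD 650 nm. EC50 derived from 8-point serial dilution dose curve.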

Broadly, the IC50 is the concentration needed to halve the response being measured. Turning to `CNC(=O)c1c(-c2ccc(F)cc2)oc2cc(-c3cn[nH]c3C)c(OC(C)C)cc12` [Example 257, 2-(4-Fluoro-phenyl)-5-isopropoxy-6-(5-methyl-1H-pyrazol-4-yl)-benzofuran-3-carboxylic acid methylamide], the concentration for half-maximal inhibition (IC50) in test [1] was at most 500 nM. In addition, the EC50 in test [2] is under 1000 nM.
On to `CNC(=O)c1c(-c2ccc(F)cc2)oc2ccc(OCc3cccc(C(=O)OC)c3)cc12` [Example 258, 3-[2-(4-Fluoro-phenyl)-3-methylcarbamoyl-benzofuran-5-yloxymethyl]-benzoic acid methyl ester], for which the half-maximal inhibitory concentration (IC50) in test [1] was at most 500 nM. Besides, the EC50 in test [2] was over 30000 nM.
As to `CNC(=O)c1c(-c2ccc(F)cc2)oc2ccc(OCc3ccc(C(=O)O)cc3)cc12` [Example 259, 4-[2-(4-Fluoro-phenyl)-3-methylcarbamoyl-benzofuran-5-yloxymethyl]-benzoic acid], the half-inhibitory concentration (IC50) in test [1] was 500 to 5000 nM. Moreover, the EC50 in test [2] was under 30000 nM.
Regarding `CNC(=O)c1c(-c2ccc(F)cc2)oc2ccc(OCc3cccc(C(=O)O)c3)cc12` [Example 260, 3-[2-(4-Fluoro-phenyl)-3-methylcarbamoyl-benzofuran-5-yloxymethyl]-benzoic acid], in test [1], the 50% inhibitory concentration (IC50) was at most 500 nM. Moreover, in test [2], the EC50 is over 30000 nM.
Take `CNC(=O)c1c(-c2ccc(F)cc2)oc2cc(C(C)=O)c(OC)cc12` [Example 261, 6-Acetyl-2-(4-fluoro-phenyl)-5-methoxy-benzofuran-3-carboxylic acid methylamide]: the half-maximal inhibitory concentration (IC50) in test [1] is at most 500 nM. The EC50 in test [2] is under 1000 nM.
With `CNC(=O)c1c(-c2ccc(F)cc2)oc2cc(N3CCOCC3)c(OCc3ccc(C(=O)OC)cc3)cc12` [Example 262, 4-[2-(4-Fluoro-phenyl)-3-methylcarbamoyl-6-morpholin-4-yl-benzofuran-5-yloxymethyl]-benzoic acid methyl ester], in test [1], the concentration for half-maximal inhibition (IC50) was at most 500 nM. For the same molecule, the EC50 in test [2] is under 10000 nM.
`CNC(=O)c1c(-c2ccc(F)cc2)oc2cc(N3CCOCC3)c(OCc3cccc(C(=O)OC)c3)cc12` [Example 263, 3-[2-(4-Fluoro-phenyl)-3-methylcarbamoyl-6-morpholin-4-yl-benzofuran-5-yloxymethyl]-benzoic acid methyl ester]: the IC50 in test [1] was at most 500 nM. Also, in test [2], the EC50 was under 10000 nM.
Consider `CNC(=O)c1c(-c2ccc(F)cc2)oc2cc(-c3c(C)nn(C)c3C)c(OC(C)C)cc12` [Example 264, 2-(4-Fluoro-phenyl)-5-isopropoxy-6-(1,3,5-trimethyl-1H-pyrazol-4-yl)-benzofuran-3-carboxylic acid methylamide], for which, in test [1], the IC50 was in the range of 500 to 5000 nM. Besides, in test [2], the EC50 was under 10000 nM.
As for `CNC(=O)c1c(-c2ccc(F)cc2)oc2cc(C3CCCN3)c(OC(C)C)cc12` (stereo not drawn) [Example 265, 2-(4-Fluoro-phenyl)-5-isopropoxy-6-pyrrolidin-2-yl-benzofuran-3-carboxylic acid methylamide], the IC50 in test [1] fell in the range of 5000 to 30000 nM. Also, the EC50 in test [2] was over 30000 nM.
In the case of `CNC(=O)c1c(-c2ccc(F)cc2)oc2cc(C#N)c(OC)cc12` [Example 266, 6-Cyano-2-(4-fluoro-phenyl)-5-methoxy-benzofuran-3-carboxylic acid methylamide], the half-inhibitory concentration (IC50) in test [1] is at most 500 nM. Also, the EC50 in test [2] is under 1000 nM.
Take `CNC(=O)c1c(-c2ccc(F)cc2)oc2cc(N3CCOCC3)c(OCc3ccc(C(=O)O)cc3)cc12` [Example 267, 4-[2-(4-Fluoro-phenyl)-3-methylcarbamoyl-6-morpholin-4-yl-benzofuran-5-yloxymethyl]-benzoic acid]: in test [1], the half-inhibitory concentration (IC50) is at most 500 nM. For the same molecule, the EC50 in test [2] was under 10000 nM.
Take `CNC(=O)c1c(-c2ccc(F)cc2)oc2cc(N3CCOCC3)c(OCc3cccc(C(=O)O)c3)cc12` [Example 268, 3-[2-(4-Fluoro-phenyl)-3-methylcarbamoyl-6-morpholin-4-yl-benzofuran-5-yloxymethyl]-benzoic acid]: the IC50 in test [1] is at most 500 nM. In addition, in test [2], the EC50 was under 10000 nM.
The matching figures for `CNC(=O)c1c(-c2ccc(F)cc2)oc2cc(N(Cc3nnnn3C)S(C)(=O)=O)c(OC(C)C)cc12` [Example 269, 2-(4-Fluoro-phenyl)-5-isopropoxy-6-[methanesulfonyl-(1-methyl-1H-tetrazol-5-ylmethyl)-amino]-benzofuran-3-carboxylic acid methylamide]: at most 500 nM and under 1000 nM.
In the case of `CNC(=O)c1c(-c2ccc(F)cc2)oc2cc(N(Cc3ccc(C(=O)OC)cc3)S(C)(=O)=O)c(OC(C)C)cc12` [Example 270, 4-({[2-(4-Fluoro-phenyl)-5-isopropoxy-3-methylcarbamoyl-benzofuran-6-yl]-methanesulfonyl-amino}-methyl)-benzoic acid methyl ester], in test [1], the IC50 was at most 500 nM. Further, the EC50 in test [2] was under 1000 nM.
Turning to `CNC(=O)c1c(-c2ccc(F)cc2)oc2cc(N(Cc3csc(C)n3)S(C)(=O)=O)c(OC(C)C)cc12` [Example 271, 2-(4-Fluoro-phenyl)-5-isopropoxy-6-[methanesulfonyl-(2-methyl-thiazol-4-ylmethyl)-amino]-benzofuran-3-carboxylic acid methylamide], the concentration for half-maximal inhibition (IC50) in test [1] was at most 500 nM. In addition, the EC50 in test [2] is under 10000 nM.
With `CNC(=O)c1c(-c2ccc(F)cc2)oc2cc(N(Cc3ccc(C(=O)O)cc3)S(C)(=O)=O)c(OC(C)C)cc12` [Example 272, 4-({[2-(4-Fluoro-phenyl)-5-isopropoxy-3-methylcarbamoyl-benzofuran-6-yl]-methanesulfonyl-amino}-methyl)-benzoic acid], the IC50 in test [1] was at most 500 nM. For the same molecule, in test [2], the EC50 is at most 1000 nM.
On to `CNC(=O)c1c(-c2ccc(F)cc2)oc2cc(-c3cc(COC)on3)c(OC(C)C)cc12` [Example 273, 2-(4-Fluoro-phenyl)-5-isopropoxy-6-(5-methoxymethyl-isoxazol-3-yl)-benzofuran-3-carboxylic acid methylamide], for which the concentration for half-maximal inhibition (IC50) in test [1] was at most 500 nM. Further, the EC50 in test [2] was under 1000 nM.
Taken in the same sequence, the figures for `CNC(=O)c1c(-c2ccc(F)cc2)oc2cc(-c3cc(C4CC4)on3)c(OC(C)C)cc12` [Example 274, 6-(5-Cyclopropyl-isoxazol-3-yl)-2-(4-fluoro-phenyl)-5-isopropoxy-benzofuran-3-carboxylic acid methylamide] were at most 500 nM and under 1000 nM.
As to `CNC(=O)c1c(-c2ccc(F)cc2)oc2cc(C3CCCN3S(C)(=O)=O)c(OC(C)C)cc12` (stereo not drawn) [Example 275, 2-(4-Fluoro-phenyl)-5-isopropoxy-6-(1-methanesulfonyl-pyrrolidin-2-yl)-benzofuran-3-carboxylic acid methylamide], in test [1], the IC50 is at most 500 nM. In addition, the EC50 in test [2] is under 1000 nM.
The matching figures for `CNC(=O)c1c(-c2ccc(F)cc2)oc2cc(C(C)=O)c(O)cc12` [Example 276, 6-Acetyl-2-(4-fluoro-phenyl)-5-hydroxy-benzofuran-3-carboxylic acid methylamide]: 500 to 5000 nM and under 10000 nM.
With `CCN(c1cc2oc(-c3ccc(F)cc3)c(C(=O)NC)c2cc1OC)S(C)(=O)=O` [Example 277, 6-(Ethyl-methanesulfonyl-amino)-2-(4-fluoro-phenyl)-5-methoxy-benzofuran-3-carboxylic acid methylamide], the 50% inhibitory concentration (IC50) in test [1] is at most 500 nM. The EC50 in test [2] was under 1000 nM.
As to `CNC(=O)c1c(-c2ccc(F)cc2)oc2cc(C3CNC(=O)C3C(=O)NC)c(OC)cc12` (stereo not drawn) [Example 278, 4-[2-(4-Fluoro-phenyl)-5-methoxy-3-methylcarbamoyl-benzofuran-6-yl]-2-oxo-pyrrolidine-3-carboxylic acid methylamide], the IC50 in test [1] is at most 500 nM. For the same molecule, the EC50 in test [2] is under 10000 nM.
As for `CNC(=O)c1c(-c2ccc(F)cc2)oc2cc(-c3nnc[nH]3)c(OC(C)C)cc12` [Example 279, 2-(4-Fluoro-phenyl)-5-isopropoxy-6-(4H-[1,2,4]triazol-3-yl)-benzofuran-3-carboxylic acid methylamide], in test [1], the IC50 was at most 500 nM. Besides, the EC50 in test [2] is under 30000 nM.
On to `CNC(=O)c1c(-c2ccc(F)cc2)oc2cc(-c3c(C)noc3COC)c(OC)cc12` [Example 280, 2-(4-Fluoro-phenyl)-5-methoxy-6-(5-methoxymethyl-3-methyl-isoxazol-4-yl)-benzofuran-3-carboxylic acid methylamide], for which the IC50 in test [1] was at most 500 nM. Also, in test [2], the EC50 is under 1000 nM.
Consider `CNC(=O)c1c(-c2ccc(F)cc2)oc2cc(N(Cc3ccc(OC)cc3)S(C)(=O)=O)c(OC(C)C)cc12` [Example 281, 2-(4-Fluoro-phenyl)-5-isopropoxy-6-[methanesulfonyl-(4-methoxy-benzyl)-amino]-benzofuran-3-carboxylic acid methylamide], for which, in test [1], the concentration for half-maximal inhibition (IC50) was at most 500 nM. In addition, the EC50 in test [2] is under 1000 nM.
`CNC(=O)c1c(-c2ccc(F)cc2)oc2cc(N(Cc3cc(C)on3)S(C)(=O)=O)c(OC(C)C)cc12` [Example 282, 2-(4-Fluoro-phenyl)-5-isopropoxy-6-[methanesulfonyl-(5-methyl-isoxazol-3-ylmethyl)-amino]-benzofuran-3-carboxylic acid methylamide]: the 50% inhibitory concentration (IC50) in test [1] was at most 500 nM. The EC50 in test [2] was under 1000 nM.
Consider `CNC(=O)c1c(-c2ccc(F)cc2)oc2cc(-c3cc(C)on3)c(OC(C)C)cc12` [Example 283, 2-(4-Fluoro-phenyl)-5-isopropoxy-6-(5-methyl-isoxazol-3-yl)-benzofuran-3-carboxylic acid methylamide], for which the IC50 in test [1] is at most 500 nM. Moreover, the EC50 in test [2] was under 1000 nM.
